# PubChem BioAssay (NCI)
#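 1) Cells in 96-well plates. 2) Compound, 48 h, 5 concentrations. 3) Linear interpolation between surrounding doses. 4) Unreached endpoint = highest concentration. Definition used: TGI = concentration required for complete inhibition of growth.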
# Experiments:
# Experiment in all cases: NCI-60 cell line screen, 48 h
# IGROV1 ovarian = test system: IGROV1 ovarian
# DU-145 prostate = test system: DU-145 prostate
# U251 CNS = test system: U251 CNS
# HCT-15 colon = test system: HCT-15 colon
# MCF7 breast = test system: MCF7 breast
# SK-MEL-28 melanoma = test system: SK-MEL-28 melanoma
# 786-0 renal = test system: 786-0 renal
# UACC-62 melanoma = test system: UACC-62 melanoma
# HOP-92 NSCLC = test system: HOP-92 NSCLC
# RPMI-8226 leukemia = test system: RPMI-8226 leukemia
# MDA-N = test system: MDA-N
# SK-MEL-5 melanoma = test system: SK-MEL-5 melanoma
# OVCAR-5 ovarian = test system: OVCAR-5 ovarian
# EKVX NSCLC = test system: EKVX NSCLC
# BT-549 breast = test system: BT-549 breast
# OVCAR-4 ovarian = test system: OVCAR-4 ovarian
# KM12 colon = test system: KM12 colon
# K-562 leukemia = test system: K-562 leukemia
# MALME-3M melanoma = test system: MALME-3M melanoma
# RXF 393 renal = test system: RXF 393 renal
# CAKI-1 renal = test system: CAKI-1 renal
# A498 renal = test system: A498 renal
# HOP-62 NSCLC = test system: HOP-62 NSCLC
# SK-MEL-2 melanoma = test system: SK-MEL-2 melanoma
# MDA-MB-231 breast = test system: MDA-MB-231 breast
# M14 melanoma = test system: M14 melanoma
# SF-268 CNS = test system: SF-268 CNS
# LOX IMVI melanoma = test system: LOX IMVI melanoma
# CCRF-CEM leukemia = test system: CCRF-CEM leukemia
# SNB-19 CNS = test system: SNB-19 CNS
# A549 NSCLC = test system: A549 NSCLC
# NCI-H522 lung = test system: NCI-H522 lung
# SF-295 CNS = test system: SF-295 CNS
# TK-10 renal = test system: TK-10 renal
# HT29 colon = test system: HT29 colon
# SF-539 CNS = test system: SF-539 CNS
# SNB-75 CNS = test system: SNB-75 CNS
# MOLT-4 leukemia = test system: MOLT-4 leukemia
# SN12C renal = test system: SN12C renal
# PC-3 prostate = test system: PC-3 prostate
# OVCAR-8 ovarian = test system: OVCAR-8 ovarian
# OVCAR-3 ovarian = test system: OVCAR-3 ovarian
# MDA-MB-435 = test system: MDA-MB-435
# ACHN renal = test system: ACHN renal
# UO-31 renal = test system: UO-31 renal
# SW-620 colon = test system: SW-620 colon
# SK-OV-3 ovarian = test system: SK-OV-3 ovarian
# UACC-257 melanoma = test system: UACC-257 melanoma
# HCT-116 colon = test system: HCT-116 colon
# HS 578T breast = test system: HS 578T breast
# T-47D breast = test system: T-47D breast
# NCI/ADR-RES ovarian = test system: NCI/ADR-RES ovarian
# COLO 205 colon = test system: COLO 205 colon
# NCI-H460 lung = test system: NCI-H460 lung
# HCC-2998 colon = test system: HCC-2998 colon
# HL-60(TB) leukemia = test system: HL-60(TB) leukemia
# NCI-H226 lung = test system: NCI-H226 lung
# NCI-H23 lung = test system: NCI-H23 lung
smiles,measurement,setting,value
COc1cccc(-c2cc(=O)c3cccnc3[nH]2)c1,TGI,IGROV1 ovarian,> 100 µM
same,TGI,DU-145 prostate,> 100 µM
same,TGI,U251 CNS,> 100 µM
same,TGI,HCT-15 colon,> 100 µM
same,TGI,MCF7 breast,> 100 µM
same,TGI,SK-MEL-28 melanoma,> 100 µM
same,TGI,786-0 renal,> 100 µM
same,TGI,UACC-62 melanoma,> 100 µM
same,TGI,HOP-92 NSCLC,> 100 µM
same,TGI,RPMI-8226 leukemia,> 100 µM
same,TGI,MDA-N,0.0394 µM
same,TGI,SK-MEL-5 melanoma,13.1 µM
same,TGI,OVCAR-5 ovarian,> 100 µM
same,TGI,EKVX NSCLC,> 100 µM
same,TGI,BT-549 breast,> 100 µM
same,TGI,OVCAR-4 ovarian,> 100 µM
same,TGI,KM12 colon,> 100 µM
same,TGI,K-562 leukemia,> 100 µM
same,TGI,MALME-3M melanoma,> 100 µM
same,TGI,RXF 393 renal,> 100 µM
same,TGI,CAKI-1 renal,> 100 µM
same,TGI,A498 renal,> 100 µM
same,TGI,HOP-62 NSCLC,> 100 µM
same,TGI,SK-MEL-2 melanoma,> 100 µM
same,TGI,MDA-MB-231 breast,> 100 µM
same,TGI,M14 melanoma,> 100 µM
same,TGI,SF-268 CNS,> 100 µM
same,TGI,LOX IMVI melanoma,> 100 µM
same,TGI,CCRF-CEM leukemia,> 100 µM
same,TGI,SNB-19 CNS,> 100 µM
same,TGI,A549 NSCLC,> 42.7 µM
same,TGI,NCI-H522 lung,> 100 µM
same,TGI,SF-295 CNS,> 100 µM
same,TGI,TK-10 renal,> 100 µM
same,TGI,HT29 colon,0.561 µM
same,TGI,SF-539 CNS,0.538 µM
same,TGI,SNB-75 CNS,> 100 µM
same,TGI,MOLT-4 leukemia,> 100 µM
same,TGI,SN12C renal,> 100 µM
same,TGI,PC-3 prostate,> 100 µM
same,TGI,OVCAR-8 ovarian,> 100 µM
same,TGI,OVCAR-3 ovarian,> 100 µM
same,TGI,MDA-MB-435,0.0855 µM
same,TGI,ACHN renal,> 100 µM
same,TGI,UO-31 renal,> 100 µM
same,TGI,SW-620 colon,> 100 µM
same,TGI,SK-OV-3 ovarian,> 100 µM
same,TGI,UACC-257 melanoma,> 100 µM
same,TGI,HCT-116 colon,> 100 µM
same,TGI,HS 578T breast,> 100 µM
same,TGI,T-47D breast,> 100 µM
Cc1ccccc1NC(=O)C(=O)Cc1cnc2ccccc2n1,TGI,IGROV1 ovarian,> 100 µM
same,TGI,DU-145 prostate,> 100 µM
same,TGI,U251 CNS,> 100 µM
same,TGI,NCI/ADR-RES ovarian,> 100 µM
same,TGI,HCT-15 colon,> 100 µM
same,TGI,MCF7 breast,> 100 µM
same,TGI,COLO 205 colon,> 100 µM
same,TGI,SK-MEL-28 melanoma,> 100 µM
same,TGI,786-0 renal,> 100 µM
same,TGI,UACC-62 melanoma,> 100 µM
same,TGI,HOP-92 NSCLC,> 100 µM
same,TGI,NCI-H460 lung,> 100 µM
same,TGI,RPMI-8226 leukemia,> 100 µM
same,TGI,MDA-N,> 100 µM
same,TGI,SK-MEL-5 melanoma,> 100 µM
same,TGI,OVCAR-5 ovarian,> 100 µM
same,TGI,EKVX NSCLC,> 100 µM
same,TGI,BT-549 breast,> 100 µM
same,TGI,OVCAR-4 ovarian,> 100 µM
same,TGI,KM12 colon,> 100 µM
same,TGI,HCC-2998 colon,> 100 µM
same,TGI,K-562 leukemia,> 100 µM
same,TGI,MALME-3M melanoma,> 100 µM
same,TGI,CAKI-1 renal,> 100 µM
same,TGI,A498 renal,> 100 µM
same,TGI,SK-MEL-2 melanoma,> 100 µM
same,TGI,MDA-MB-231 breast,> 100 µM
same,TGI,M14 melanoma,> 100 µM
same,TGI,SF-268 CNS,> 100 µM
same,TGI,LOX IMVI melanoma,> 100 µM
same,TGI,CCRF-CEM leukemia,> 100 µM
same,TGI,SNB-19 CNS,> 100 µM
same,TGI,A549 NSCLC,> 100 µM
same,TGI,NCI-H522 lung,> 100 µM
same,TGI,SF-295 CNS,> 100 µM
same,TGI,TK-10 renal,> 100 µM
same,TGI,HT29 colon,> 100 µM
same,TGI,SF-539 CNS,> 100 µM
same,TGI,HL-60(TB) leukemia,> 100 µM
same,TGI,NCI-H226 lung,> 100 µM
same,TGI,MOLT-4 leukemia,> 100 µM
same,TGI,SN12C renal,> 100 µM
same,TGI,NCI-H23 lung,> 100 µM
same,TGI,PC-3 prostate,> 100 µM
same,TGI,OVCAR-8 ovarian,> 100 µM
same,TGI,OVCAR-3 ovarian,> 100 µM
same,TGI,MDA-MB-435,> 100 µM
same,TGI,ACHN renal,> 100 µM
same,TGI,UO-31 renal,> 100 µM
same,TGI,SW-620 colon,> 100 µM
same,TGI,SK-OV-3 ovarian,> 100 µM
same,TGI,UACC-257 melanoma,> 100 µM
same,TGI,HCT-116 colon,> 100 µM
same,TGI,HS 578T breast,> 100 µM
same,TGI,T-47D breast,> 100 µM
